In the assay the target is menin protein (Homo sapiens (Human), UniProt O00255). Put plainly: biochemical. In kind it is binding. Conditions: FP competitive binding; menin protein 4 nM, FAM-MM2 probe 2 nM; read-out: Menin Binding Affinity IC50. The method, then: A fluorescence polarization (FP) competitive binding assay was used to determine the binding affinities of representative menin inhibitors. A FAM labeled fluorescent probe was designed and synthesized based on a MLL1 peptide (FAM-MM2). Equilibrium dissociation constant (Kd) value of FAM-MM2 to menin protein was determined from protein saturation experiments by monitoring the total fluorescence polarization of mixtures composed with the fluorescent probe at a fixed concentration and the protein with increasing concentrations up to full saturation. Serial dilutions of the protein were mixed with FAM-MM2 to a final volume of 200 μl in the assay buffer (PBS with 0.02% Bovine γ-Globulin and 4% DMSO. 0.01% Triton X-100 was added right before assays). Final FAM-MM2 concentration was 2 nM. Plates were incubated at room temperature for 30 minutes with gentle shaking to assure equilibrium.
The IC50, see Table 3, and Ki values of representative Compounds of the Disclosure were determined in a competitive binding experiment. Mixtures of 5 μl of the tested compounds in DMSO and 195 μl of preincubated protein/probe complex solution in the assay buffer were added into assay plates which were incubated at room temperature for 30 minutes with gentle shaking. Final concentration of the menin protein was 4 nM, and final probe concentration is 2 nM. […] FP values were measured as described above. IC50 values were determined by nonlinear regression fitting of the competition curves.

Sequence of menin protein (O00255 whole entry): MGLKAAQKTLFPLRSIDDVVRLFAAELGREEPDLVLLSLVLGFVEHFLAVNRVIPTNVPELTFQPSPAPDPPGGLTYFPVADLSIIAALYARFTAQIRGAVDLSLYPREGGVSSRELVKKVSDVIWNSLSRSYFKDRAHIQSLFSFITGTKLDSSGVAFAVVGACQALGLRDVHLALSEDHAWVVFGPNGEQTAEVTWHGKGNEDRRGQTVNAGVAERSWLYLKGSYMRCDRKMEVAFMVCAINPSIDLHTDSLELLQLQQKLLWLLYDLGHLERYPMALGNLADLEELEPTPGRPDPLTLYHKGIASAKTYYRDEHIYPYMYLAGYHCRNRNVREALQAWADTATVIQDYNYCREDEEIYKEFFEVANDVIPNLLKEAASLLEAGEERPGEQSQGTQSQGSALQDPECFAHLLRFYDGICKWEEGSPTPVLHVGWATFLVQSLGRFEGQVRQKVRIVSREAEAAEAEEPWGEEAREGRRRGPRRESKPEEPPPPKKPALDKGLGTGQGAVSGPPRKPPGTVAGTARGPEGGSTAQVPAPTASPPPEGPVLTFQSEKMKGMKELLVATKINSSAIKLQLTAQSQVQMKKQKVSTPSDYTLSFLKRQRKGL

A word on the IC50: it is the concentration that inhibits the measured activity by half. Regarding `O=C(CN1CCC(C2(C3CCCC3)NCCc3ccccc32)CC1)N1CCc2ccccc2C1` (centres unmarked) [compound 84, 2-(4-(1-cyclopentyl-1,2,3,4-tetrahydroisoquinolin-1-yl)piperidin-1-yl)-1-(3,4-dihydroisoquinolin-2(1H)-yl)ethan-1-one], the IC50 came to 8200 nM. In the case of `CO[C@@H]1CCC[C@H]1C1(C2CCN(CCCOc3ccc(C(=O)O)cc3)CC2)CNCc2ccccc21` (mixture of isomers) [compound 327, rac-4-(3-(4-(4-((1S,2R)-2-methoxycyclopentyl)-1,2,3,4-tetrahydroisoquinolin-4-yl)piperidin-1-yl)propoxy)benzoic acid] it was 485000 nM; in that of `CNC(=O)[C@H]1CCC[C@@H]1C(C#N)(c1ccccc1)C1CCN(CC2CN(c3ccc(S(=O)(=O)C4CC4)cc3)C2)CC1` (mixture of isomers) [compound 334, rac-(1S,2S)-2-(cyano(1-((1-(4-(cyclopropylsulfonyl)phenyl)azetidin-3-yl)methyl)piperidin-4-yl)(phenyl)methyl)-N-methylcyclopentane-1-carboxylate], 3200 nM.

With `CCN1Cc2ccccc2C(C2CCCC2)(C2CCN(CC3CN(c4ccc(S(=O)(=O)C5CC5)cc4C)C3)CC2)C1` (centres unmarked) [compound 96, 4-cyclopentyl-4-(1-((1-(4-(cyclopropylsulfonyl)-2-methylphenyl)azetidin-3-yl)methyl)piperidin-4-yl)-2-ethyl-1,2,3,4-tetrahydroisoquinoline], the half-inhibitory concentration (IC50) was 587 nM. In the case of `N#Cc1ccc(OCCCN2CCC(C3(c4ccccc4)NCCc4ccccc43)CC2)cc1` (centres unmarked) [compound 246, 4-(3-(4-(1-phenyl-1,2,3,4-tetrahydroisoquinolin-1-yl)piperidin-1-yl)propoxy)benzonitrile] it was 35600 nM; in that of `CNC(=O)N[C@H]1CCC[C@@H]1C(CNC(=O)c1cocn1)(c1ccccc1)C1CCN(CC2CN(c3ccc(C#N)cc3)C2)CC1` (mixture of isomers) [compound 378, rac-N-(2-(1-((1-(4-cyanophenyl)azetidin-3-yl)methyl)piperidin-4-yl)-2-((1R,2S)-2-(3-methylureido)cyclopentyl)-2-phenylethyl)oxazole-4-carboxamide], 32 nM. In the case of `CC(=O)NCC(c1ccccc1)(C1CCCC1)C1CCN(CCCOc2ccc(C#N)cc2)CC1` (centres unmarked) [compound 40, N-(2-(1-(3-(4-cyanophenoxy)propyl)piperidin-4-yl)-2-cyclopentyl-2-phenylethyl)acetamide] it was 817 nM. In the case of `c1ccc(CN2CCC(C3(C4CCCC4)NCCc4ccccc43)CC2)cc1` (centres unmarked) [Cpd. No. 71, 1-(1-benzylpiperidin-4-yl)-1-cyclopentyl-1,2,3,4-tetrahydroisoquinoline] it was 190000 nM. Turning to `CNC(=O)O[C@@H]1CCC[C@H]1C(C#N)(c1ccccc1)C1CCN(CC2CN(c3ccc(S(=O)(=O)C4CC4)cc3)C2)CC1` (mixture of isomers) [compound 227, rac-(1R,2S)-2-(cyano(1-((1-(4-(cyclopropylsulfonyl)phenyl)azetidin-3-yl)methyl)piperidin-4-yl)(phenyl)methyl)cyclopentyl methylcarbamate], the 50% inhibitory concentration (IC50) came to 498 nM. Take `CC(=O)O[C@H]1CCC[C@@H]1C(C#N)(c1cccc(F)c1)C1CCN(CC2CN(c3ccc(S(=O)(=O)c4ccccc4)cc3)C2)CC1` (mixture of isomers) [compound 312, rac-(1S,2R)-2-(cyano(3-fluorophenyl)(1-((1-(4-(phenylsulfonyl)phenyl)azetidin-3-yl)methyl)piperidin-4-yl)methyl)cyclopentyl acetate]: the half-maximal inhibitory concentration (IC50) came out at 13 nM. As for `N#Cc1ccc(NCCCN2CCC(C3(C4CCCC4)NCCc4ccccc43)CC2)cc1` (centres unmarked) [compound 58, 4-((3-(4-(1-cyclopentyl-1,2,3,4-tetrahydroisoquinolin-1-yl)piperidin-1-yl)propyl)amino)benzonitrile], the IC50 was 241 nM.
